{"source": "patent US7319094B2", "about": "“Increased and sustained in vivo gene expression using a nucleic acid, histone and amphipathic compound composition” (Rhode Island Hospital, priority 2001, dated 2008)", "key": {"[1]": {"system": "AD7c-NTP", "experiment": "AD7c-NTP expression in stably transfected PNET2 cells (LacSwitch II inducible system), Western blot / MICE assay", "type": "cell-based, human", "source_text": "Prior to the invention, cells stably transfected with AD7c-NTP could not be maintained because of progressive cell death. Therefore, an inducible system of AD7c-NTP expression was established using the LacSwitch II mammalian expression vector (Stratagene, La Jolla, Calif.). PNET2 human CNS neuronal cells were stably transfected with the pCMVLacII vector in which the Lac repressor protein driven by a CMV promoter. The Lac repressor protein is targeted to the nucleus by the nuclear localization sequence. […]\nStandard Western blot assays wew used to measure cellular levels of p53, Bcl-2, p21/Waf1, phospho-tau, tau, c-fos, NTP, and activated (phosphorylated) forms of Erk mitogen activated protein (MAP) kinase, amino-terminal c-jun-activated kinase (pJNK), and p38/HOG1. […] Protein concentrations were measured using the BCA assay (Pierce, Rockford, Ill.). Samples containing 60 μg of protein were fractionated by sodium dodecyl sulfate polyacrylamide gel electrophoresis (SDS-PAGE), then transferred to PVDF membranes, and analyzed by Western immunoblotting. Immunoreactivity was detected with horseradish peroxidase conjugated secondary IgG and PicoWest enhanced chemiluminescence reagents (Pierce Chemical Company, Rockford, Ill.). CAT activity was measured using known methods. […]"}, "[2]": {"system": "GAPDH", "experiment": "GAPDH immunoreactivity in AD7c-NTP-transfected PNET2 cells, MICE assay", "type": "cell-based, human", "details": "IPTG 3 mM", "source_text": "The MICE assay is known in the art (e.g., as described by de la Monte et al., 1999, Biotechniques 26:107301076). The assay is a rapid and sensitive method for quantifying immunoreactivity in 96-well micro-cultures and combines the advantages of the enzyme-linked immunosorbant assay with immunocytochemical staining to permit sensitive in situ quantification of protein expression with values normalized to cell density. The cells were fixed in Histochoice (Amresco, Solon, Ohio), permeabilized with 0.05% saponin in Tris-buffered saline (50 mM Tris, pH 7.5, 0.9% NaCl; TBS), and blocked with Superblock-TBS (Pierce, Rockford, Ill.). […] Immunoreactivity was detected using horseradish peroxidase conjugated secondary antibody (Pierce, Rockford, Ill.) and the TMB soluble peroxidase substrate (Pierce, Rockford, Ill.). Absorbances were measured at 450 nm using a Spectracount plate reader.\nTo compare the levels of protein expression it was necessary to correct for differences in cell density. […] The absorbances (560 nm) were measured using a Spectracount plate reader (Packard Instrument Company, Meriden, Conn.). The MICE index was calculated from the ratio of the absorbances measured for immunoreactivity and cell density. Coomassie blue absorbance increases linearly with cell density between 1×10^4 and 5×10^5 cells per well. Eight or 16 replicate culture wells were analyzed in each experiment. […]"}}, "data": [{"smiles": "CC(C)S[C@@H]1O[C@H](CO)[C@H](O)[C@H](O)[C@H]1O", "note": "[IPTG, Isopropyl-1-[…]-D-thiogalactopyranoside]", "values": [{"measurement": "increase in N314-immunoreactive NTP (MICE assay)", "setting": "[1]; IPTG 3 mM, 24 hours of induction", "result": "greater than five-fold"}, {"measurement": "optimum concentration for inducing gene expression", "setting": "[1]; PNET2 clones", "result": 3, "unit": "mM"}, {"measurement": "levels of GAPDH (MICE assay)", "setting": "[2]", "result": "no change"}]}]}
